# According to patent publication US20210317099A1, “SAFER, POTENT, AND FAST ACTING ANTIMICROBIAL AGENTS” (Purdue Research Foundation, priority 2020, published 2021):
# Read-outs that look alike come from different tables or passages of the source.
# How the values were obtained:
# [1] = test system: human keratinocytes cell line (HaCaT cells); assay: In vitro cytotoxicity, MTS assay; type: cell-based; settings: 2 h
# Experimental: Compounds 144, 148, 149, 151, 155, and 158 were assayed (at concentrations of 16, 32, and 64 μg/mL) against a human keratinocytes cell line (HaCaT cells) to determine their in vitro potential toxic effect. Briefly, cells were cultured in Dulbecco's Modified Eagle Medium (DMEM) supplemented with 10% fetal bovine serum (FBS) and penicillin-streptomycin at 37° C. in presence of 5% CO2. Compounds were added in the first row of the 96-well plate. Control cells received DMSO alone at a concentration equivalent to that in drug-treated wells. The cells were incubated with the compounds (in triplicate) in a 96-well plate at 37° C. in presence of 5% CO2 for two hours. The assay reagent MTS 3-(4,5-dimethylthiazol-2-yl)-5-(3-carboxymethoxyphenyl)-2-(4-sulfophenyl)-2H-tetrazolium) (Promega, Madison, Wis., USA) was subsequently added and the plate was incubated for three to four hours. Absorbance readings (at OD490) were recorded using a kinetic microplate reader (Molecular Devices, Sunnyvale, Calif., USA). The quantity of viable cells after treatment with each compound was expressed as a percentage of the viability to DMSO-treated control cells (average of triplicate wells±standard deviation).
# FIG. 2. Analyzing the toxicity of compounds 144, 148, 149, 151, 155 and 158 (tested in triplicates at 16, 32 and 64 μg/mL) against human keratinocytes cells (HaCaT) using the MTS 3-(4,5-dimethylthiazol-2-yl)-5-(3-carboxymethoxyphenyl)-2-(4-sulfophenyl)-2H-tetrazolium) assay. Results are presented as percent viable cells relative to DMSO (negative control to determine a baseline measurement for the cytotoxic impact of each compound). The absorbance values represent an average of three samples analyzed for each compound. Error bars represent standard deviation values. The data were analyzed via a two-way ANOVA with post-hoc Dunnett's test for multiple comparisons. An asterisk (*) denotes statistical significance (P<0.05) between results for compounds and DMSO.
# [2] = test system: Staphylococcus aureus NRS384 (MRSA USA300); assay: Initial MIC screening, broth microdilution (CLSI); type: cell-based; settings: Staphylococcus aureus NRS384 (MRSA USA300), broth microdilution, visual reading
# Procedure, shortened: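 MRSA USA300 grown 24 h at 37 °C on tryptic soy agar, then adjusted to 5×10^5 CFU/ml in cation-adjusted Mueller-Hinton broth. Compounds serially diluted 64 to 0.5 μg/mL per CLSI broth microdilution; MIC recorded.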
# MRSA NRS 119 = assay: MIC, Gram-positive panel; type: cell-based; settings: Staphylococcus aureus
# Experimental: (§1) Next, the spectrum of antibacterial activity of compounds 144, 148, 149, 151, 155, 158, and 187 was examined against a panel of clinically relevant Gram-positive bacterial pathogens including methicillin-resistant Staphylococcus aureus (MRSA), vancomycin-resistant Staphylococcus aureus (VRSA), vancomycin-resistant Enterococcus faecalis and Enterococcus faecium (VRE), and Streptococcus pneumoniae. Bacterial strains were grown aerobically overnight on tryptone soya agar plates at 37° C. Afterwards, a bacterial solution equivalent to 0.5 McFarland standard was prepared and diluted in cation-adjusted Mueller-Hinton broth (CAMHB) (for staphylococci). Enterococci and Streptococci were diluted in tryptone soya broth (TSB) to achieve a bacterial concentration of about 5×10^5 CFU/mL and seeded in 96-well plates. Compounds and control drugs were added in the first row of 96-well plates and serially diluted with media containing bacteria. Plates were then, incubated aerobically at 37° C. for 18-20 hours (except for S. pneumoniae, which was incubated at 37° C. in presence of 5% CO2 for 18-20 hours).
# VRSA 10 = assay: MIC, Gram-positive panel; type: cell-based; settings: Staphylococcus aureus
# Experimental: as §1
# S. aureus ATCC 6538 = assay: MIC, Gram-positive panel; type: cell-based; settings: Staphylococcus aureus, ATCC6538
# Experimental: as §1
# MRSA NRS 123 = assay: MIC, Gram-positive panel; type: cell-based; settings: Staphylococcus aureus
# Experimental: as §1
# [3] = test system: Enterococcus faecalis ATCC 51299 (VRE); assay: MIC, Gram-positive panel; type: cell-based
# Experimental: as §1
# [4] = test system: Methicillin-resistant S. pneumoniae ATCC 700677; assay: MIC, Gram-positive panel; type: cell-based; settings: Streptococcus pneumoniae, ATCC700677
# Experimental: as §1
# [5] = test system: Enterococcus faecium ATCC 700221 (VRE); assay: MIC, Gram-positive panel; type: cell-based
# Experimental: as §1
# S. pneumoniae ATCC 51916 = assay: MIC, Gram-positive panel; type: cell-based; settings: Streptococcus pneumoniae, ATCC51916
# Experimental: as §1
# MRSA NRS 386 = assay: MIC, Gram-positive panel; type: cell-based; settings: Staphylococcus aureus
# Experimental: as §1
# S. aureus NRS 107 = assay: MIC, Gram-positive panel; type: cell-based; settings: Staphylococcus aureus, NRS107
# Experimental: as §1
# [6] = test system: Methicillin-resistant S. epidermidis NRS101; assay: MIC, Gram-positive panel; type: cell-based; settings: Staphylococcus epidermidis
# Experimental: as §1
# MRSA NRS 385 = assay: MIC, Gram-positive panel; type: cell-based; settings: Staphylococcus aureus
# Experimental: as §1
# VRSA 12 = assay: MIC, Gram-positive panel; type: cell-based; settings: Staphylococcus aureus
# Experimental: as §1
# MRSA USA 400 = assay: Time-kill assay; type: cell-based, Staphylococcus aureus; settings: 5×MIC, MRSA USA 400, 24-hour incubation
# Experimental: In order to the mode of killing of methylene lactone compounds, a time kill assay was performed against MRSA USA 400 as described previously. MRSA USA400 cells in logarithmic growth phase (OD600˜1.00) were diluted to 6.03×10^6 colony-forming units (CFU/mL) and exposed to concentrations equivalent to 5×MIC (in triplicate) of 148, 149, 151, 155, 158 and vancomycin in Tryptic soy broth. Aliquots (100 μL) were collected from each treatment after 0, 2, 4, 6, 8, 12, and 24 hours of incubation at 37° C. and subsequently serially diluted in PBS. Bacteria were then transferred to Tryptic soy agar plates and incubated at 37° C. for 18-20 hours before viable CFU/mL was determined (FIG. 1).
# DMSO (solvent for the compounds) served as a negative control and vancomycin served as a control drug. The error bars represent standard deviation values obtained from triplicate samples used for each compound/antibiotic studied.
# [7] = test system: intracellular MRSA USA400 inside murine macrophage (J774) cells; assay: Clearance of intracellular MRSA in infected J774 macrophages; type: cell-based, Staphylococcus aureus; settings: 24 hours, J774 infected with MRSA USA400
# Experimental: The ability of the compound 148 to reduce the burden of intracellular MRSA was evaluated utilizing previously described methods. Murine macrophage cells (J774) were cultured in Dulbecco's Modified Eagle Medium (DMEM) supplemented with 10% FBS at 37° C. with CO2 (5%). J774 cells were exposed to MRSA USA400 cells at a multiplicity of infection of approximately 10:1. After 1 hour of infection, J774 cells were washed with gentamicin (200 μg/mL) to kill extracellular MRSA. The compounds or vancomycin (at 4×MIC and 8×MIC) were subsequently added to each well (four replicates per test agent). Control cells received DMSO at a concentration equal to that in drug-treated cell samples. After 24 hours-incubation at 37° C. with 5% CO2, the test agents were removed. J774 cells were washed and subsequently lysed using 0.1% Triton-X. The solution was serially diluted in phosphate-buffered saline and transferred to TSA plates in order to determine viable MRSA CFU inside the J774 cells. Plates were incubated at 37° C. for 18-22 hour before counting viable CFU/mL. Statistical significance was assessed with two-way ANOVA, with post hoc Dunnet's multiple comparisons test (P<0.05), utilizing GraphPad Prism 6.0 (GraphPad Software, La Jolla, Calif.).
# FIG. 6. Examination of the activity of compounds 148 on the clearance of intracellular MRSA present inside infected murine macrophage (J774) cells. […] Data were analyzed via two-way ANOVA, with post hoc Dunnet's multiple comparisons test (P<0.05), utilizing GraphPad Prism 6.0 (GraphPad Software, La Jolla, Calif.). Asterisks (*) represent significant difference between treatment of J774 cells with compound 148 in comparison to vancomycin.
# [8] = test system: total proteases production in MRSA USA300; assay: Inhibition of staphylococcal total proteases production, skimmed milk method; type: cell-based, Staphylococcus aureus; settings: MRSA USA300, 0.25×MIC, untreated = 100%
# Experimental: The modified skimmed milk method was utilized to investigate the protease inhibitory activities of BHS compounds as described previously. In brief, overnight culture of MRSA300 in TSB, with and without subinhibitory concentrations of compounds (in triplicate), was centrifuged at 14000×g for 10 minutes. Then, a total volume of 500 μL of culture supernatant was incubated with 1 mL skimmed milk (1.25%) at 37° C. for 1 hour. Afterwards, the OD600 was measured to indicate the degree of clearance of skimmed milk. Higher OD values indicate lower proteolytic activity and greater protease inhibitory activity.
# FIG. 4. Influence of BHS compounds on the staphylococcal total protease production. OD600 was measured following overnight culturing of MRSA USA300 in TSB in presence and absence of 0.25×MIC of 148, 149, 155, 158 and vancomycin followed by incubation of supernatants with skim milk for 1 hour at 37° C. The Data are presented as percent production (means±standard deviation). DMSO (the solvent for the compounds that served as a negative control). Vancomycin served as the control antibiotic. The values represent an average (means±standard deviation) of four samples analyzed for each compound/antibiotic. Error bars represent standard deviation values. An asterisk (*) denotes statistical significance (P<0.05) between results for compounds 148, 149, 155, 158 and vancomycin analyzed via unpaired t test ([…]).
compound,measurement,setting,value
C=C1C(=O)O[C@H](C2=CC=CCC2)[C@H]1c1cccc2ccccc12 [Compound 187],tolerable concentration as multiple of MIC against MRSA,[1],16 to 32 times
same,MIC,[2],1 µg/mL
same,MIC,"[2]; Staphylococcus aureus, read-out: MIC",1 to 2 µg/mL
same,MIC,"MRSA NRS 119; MRSA NRS 119, read-out: MIC",2 µg/mL
same,MIC,"VRSA 10; VRSA 10, read-out: MIC",1 µg/mL
same,MIC,"S. aureus ATCC 6538; S. aureus ATCC 6538, read-out: MIC",1 µg/mL
same,MIC,"MRSA NRS 123; MRSA NRS 123, read-out: MIC",2 µg/mL
same,MIC,"[3]; Enterococcus faecalis ATCC 51299 (VRE), read-out: MIC",> 64 µg/mL
same,MIC,"[4]; Methicillin-resistant S. pneumoniae ATCC 700677, read-out: MIC",1 µg/mL
same,MIC,"[5]; Enterococcus faecium ATCC 700221 (VRE), read-out: MIC",> 64 µg/mL
same,MIC,"S. pneumoniae ATCC 51916; S. pneumoniae ATCC 51916, read-out: MIC",1 µg/mL
same,MIC,"MRSA NRS 386; MRSA NRS 386, read-out: MIC",1 µg/mL
same,MIC,"S. aureus NRS 107; S. aureus NRS 107, read-out: MIC",1 µg/mL
same,MIC,"[6]; Methicillin-resistant S. epidermidis NRS101, read-out: MIC",0.5 µg/mL
same,MIC,"MRSA NRS 385; MRSA NRS 385, read-out: MIC",1 µg/mL
same,MIC,"VRSA 12; VRSA 12, read-out: MIC",2 µg/mL
"CN[C@H](CC(C)C)C(=O)N[C@H]1C(=O)N[C@@H](CC(N)=O)C(=O)N[C@H]2C(=O)N[C@H]3C(=O)N[C@H](C(=O)N[C@H](C(=O)O)c4cc(O)cc(O)c4-c4cc3ccc4O)[C@H](O)c3ccc(c(Cl)c3)Oc3cc2cc(c3O[C@@H]2O[C@H](CO)[C@@H](O)[C@H](O)[C@H]2O[C@H]2C[C@](C)(N)[C@H](O)[C@H](C)O2)Oc2ccc(cc2Cl)[C@H]1O [vancomycin, reference compound]",time required for complete eradication of the bacterial count,MRSA USA 400,12 h
same,reduction of intracellular MRSA,[7]; 4 μg/mL,not able to reduce
same,reduction of intracellular MRSA,[7]; 8 μg/mL,not able to reduce
same,MIC,MRSA NRS 119,1 µg/mL
same,MIC,VRSA 10; VRSA,> 64 µg/mL
same,MIC,S. aureus ATCC 6538,1 µg/mL
same,MIC,MRSA NRS 123,1 µg/mL
same,MIC,[3]; Enterococcus faecalis,32 µg/mL
same,MIC,[4],2 µg/mL
same,MIC,[5]; Enterococcus faecium,> 64 µg/mL
same,MIC,S. pneumoniae ATCC 51916,2 µg/mL
same,MIC,MRSA NRS 386,1 µg/mL
same,MIC,S. aureus NRS 107,2 µg/mL
same,MIC,[6]; NRS101,2 µg/mL
same,MIC,MRSA NRS 385,1 µg/mL
same,MIC,VRSA 12; VRSA,> 64 µg/mL
same,total protease production,[8],ineffective
